Reference: PubChem BioAssay (NCI)
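Grown in 96-well plates, cells were treated for 48 hours with each compound at five concentrations. Insufficient inhibition: endpoint recorded as highest concentration tested. TGI marks complete inhibition of growth.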

How the values were obtained:
Assay in all cases: growth of human tumour cells (NCI), 48 h
EKVX NSCLC = system: EKVX NSCLC
NCI-H460 lung = system: NCI-H460 lung
HCC-2998 colon = system: HCC-2998 colon
786-0 renal = system: 786-0 renal
ACHN renal = system: ACHN renal
K-562 leukemia = system: K-562 leukemia
UACC-62 melanoma = system: UACC-62 melanoma
HS 578T breast = system: HS 578T breast
MDA-MB-435 = system: MDA-MB-435
RXF 393 renal = system: RXF 393 renal
M14 melanoma = system: M14 melanoma
MOLT-4 leukemia = system: MOLT-4 leukemia
SN12C renal = system: SN12C renal
IGROV1 ovarian = system: IGROV1 ovarian
CCRF-CEM leukemia = system: CCRF-CEM leukemia
HCT-15 colon = system: HCT-15 colon
TK-10 renal = system: TK-10 renal
SF-295 CNS = system: SF-295 CNS
SF-268 CNS = system: SF-268 CNS
SK-MEL-28 melanoma = system: SK-MEL-28 melanoma
HOP-62 NSCLC = system: HOP-62 NSCLC
MDA-N = system: MDA-N
A549 NSCLC = system: A549 NSCLC
UACC-257 melanoma = system: UACC-257 melanoma
KM12 colon = system: KM12 colon
HOP-92 NSCLC = system: HOP-92 NSCLC
NCI/ADR-RES ovarian = system: NCI/ADR-RES ovarian
NCI-H522 lung = system: NCI-H522 lung
HT29 colon = system: HT29 colon
DU-145 prostate = system: DU-145 prostate
OVCAR-5 ovarian = system: OVCAR-5 ovarian
OVCAR-8 ovarian = system: OVCAR-8 ovarian
SK-MEL-5 melanoma = system: SK-MEL-5 melanoma
NCI-H23 lung = system: NCI-H23 lung
SF-539 CNS = system: SF-539 CNS
A498 renal = system: A498 renal
COLO 205 colon = system: COLO 205 colon
SW-620 colon = system: SW-620 colon
NCI-H226 lung = system: NCI-H226 lung
PC-3 prostate = system: PC-3 prostate
HCT-116 colon = system: HCT-116 colon
BT-549 breast = system: BT-549 breast
CAKI-1 renal = system: CAKI-1 renal
SR leukemia = system: SR leukemia
SNB-75 CNS = system: SNB-75 CNS
UO-31 renal = system: UO-31 renal
SNB-19 CNS = system: SNB-19 CNS
T-47D breast = system: T-47D breast
RPMI-8226 leukemia = system: RPMI-8226 leukemia
MDA-MB-231 breast = system: MDA-MB-231 breast
OVCAR-3 ovarian = system: OVCAR-3 ovarian
MCF7 breast = system: MCF7 breast
LOX IMVI melanoma = system: LOX IMVI melanoma
SK-MEL-2 melanoma = system: SK-MEL-2 melanoma
OVCAR-4 ovarian = system: OVCAR-4 ovarian
U251 CNS = system: U251 CNS
MALME-3M melanoma = system: MALME-3M melanoma
SK-OV-3 ovarian = system: SK-OV-3 ovarian

Measured: TGI

CCc1nc(N)c2nc(-c3ccc(C#N)cc3)oc2n1
> 100 µM: EKVX NSCLC | NCI-H460 lung | HCC-2998 colon | 786-0 renal | ACHN renal | K-562 leukemia | UACC-62 melanoma | HS 578T breast | MDA-MB-435 | RXF 393 renal | M14 melanoma | MOLT-4 leukemia | SN12C renal | IGROV1 ovarian | CCRF-CEM leukemia | HCT-15 colon | TK-10 renal | SF-295 CNS | SF-268 CNS | SK-MEL-28 melanoma | HOP-62 NSCLC | MDA-N | A549 NSCLC | UACC-257 melanoma | KM12 colon | HOP-92 NSCLC | NCI/ADR-RES ovarian | NCI-H522 lung | HT29 colon | DU-145 prostate | OVCAR-5 ovarian | OVCAR-8 ovarian | SK-MEL-5 melanoma | NCI-H23 lung | SF-539 CNS | A498 renal | COLO 205 colon | SW-620 colon | NCI-H226 lung | PC-3 prostate | HCT-116 colon | BT-549 breast | CAKI-1 renal | SR leukemia | SNB-75 CNS | UO-31 renal | SNB-19 CNS | T-47D breast | RPMI-8226 leukemia | MDA-MB-231 breast | OVCAR-3 ovarian | MCF7 breast | LOX IMVI melanoma | SK-MEL-2 melanoma

COC(=O)CCC1(C)C2CCC1/C(=N/O)C2 (stereo not drawn)
> 100 µM: EKVX NSCLC | HCC-2998 colon | 786-0 renal | ACHN renal | K-562 leukemia | UACC-62 melanoma | HS 578T breast | MDA-MB-435 | RXF 393 renal | M14 melanoma | OVCAR-4 ovarian | MOLT-4 leukemia | SN12C renal | U251 CNS | IGROV1 ovarian | CCRF-CEM leukemia | HCT-15 colon | TK-10 renal | MALME-3M melanoma | SF-295 CNS | SF-268 CNS | SK-MEL-28 melanoma | HOP-62 NSCLC | MDA-N | A549 NSCLC | UACC-257 melanoma | KM12 colon | NCI/ADR-RES ovarian | NCI-H522 lung | HT29 colon | DU-145 prostate | OVCAR-5 ovarian | OVCAR-8 ovarian | SK-MEL-5 melanoma | NCI-H23 lung | A498 renal | COLO 205 colon | SW-620 colon | NCI-H226 lung | PC-3 prostate | HCT-116 colon | BT-549 breast | CAKI-1 renal | SR leukemia | SNB-75 CNS | UO-31 renal | SNB-19 CNS | T-47D breast | RPMI-8226 leukemia | SK-OV-3 ovarian | MDA-MB-231 breast | OVCAR-3 ovarian | MCF7 breast | SK-MEL-2 melanoma

S=C(NCCc1ccccn1)c1nc[nH]c1C(=S)NCCc1ccccn1
60.6 µM: T-47D breast
81.1 µM: CCRF-CEM leukemia
56.2 µM: UACC-62 melanoma
68.1 µM: HS 578T breast
82.4 µM: OVCAR-8 ovarian
83.3 µM: SNB-75 CNS
87.9 µM: RXF 393 renal
65.1 µM: NCI/ADR-RES ovarian
> 100 µM: EKVX NSCLC | HCC-2998 colon | 786-0 renal | ACHN renal | K-562 leukemia | MDA-MB-435 | M14 melanoma | OVCAR-4 ovarian | SN12C renal | U251 CNS | IGROV1 ovarian | HCT-15 colon | TK-10 renal | MALME-3M melanoma | SF-295 CNS | SF-268 CNS | SK-MEL-28 melanoma | HOP-62 NSCLC | MDA-N | A549 NSCLC | UACC-257 melanoma | KM12 colon | HOP-92 NSCLC | HT29 colon | DU-145 prostate | OVCAR-5 ovarian | SK-MEL-5 melanoma | NCI-H23 lung | A498 renal | COLO 205 colon | SW-620 colon | NCI-H226 lung | PC-3 prostate | HCT-116 colon | BT-549 breast | CAKI-1 renal | SR leukemia | UO-31 renal | SNB-19 CNS | RPMI-8226 leukemia | SK-OV-3 ovarian | MDA-MB-231 breast | OVCAR-3 ovarian | MCF7 breast | SK-MEL-2 melanoma
45.5 µM: LOX IMVI melanoma
64.6 µM: NCI-H460 lung
